Values of other authors, collected in article PMC7134594 (Chemistry & Biology, 2004).

Test system: SARS-CoV

Structure (SMILES) | inhibiting replication of SARS-CoV in vitro | further results
CSC[C@H](NC(=O)COc1cccc2cnccc12)C(=O)N[C@@H](Cc1ccccc1)[C@H](O)C(=O)N1CSC[C@H]1C(=O)NC(C)(C)C [KNI-272] | ineffective | –
NC(=O)c1ncn([C@@H]2O[C@H](CO)[C@@H](O)[C@H]2O)n1 [Ribavirin, ribavirin] | – | anti-SARS-CoV activity in vitro: anti-SARS-CoV activity in vitro, but at concentrations that are cytotoxic
CC(C)(C)NC(=O)[C@@H]1CN(Cc2cccnc2)CCN1C[C@@H](O)C[C@@H](Cc1ccccc1)C(=O)N[C@H]1c2ccccc2C[C@H]1O [indinavir] | ineffective | –
Cc1cccc(C)c1OCC(=O)N[C@@H](Cc1ccccc1)[C@@H](O)C[C@H](Cc1ccccc1)NC(=O)[C@H](C(C)C)N1CCCNC1=O [lopinavir] | ineffective | –
Cc1c(O)cccc1C(=O)N[C@@H](CSc1ccccc1)[C@H](O)CN1C[C@H]2CCCC[C@H]2C[C@H]1C(=O)NC(C)(C)C [nelfinavir] | – | EC50 (read-out: EC50, inhibition of SARS-CoV replication): 48 nM
CC(C)c1nc(CN(C)C(=O)N[C@H](C(=O)N[C@@H](Cc2ccccc2)C[C@H](O)[C@H](Cc2ccccc2)NC(=O)OCc2cncs2)C(C)C)cs1 [ritonavir] | ineffective | –
CC(C)(C)NC(=O)[C@@H]1C[C@@H]2CCCC[C@@H]2CN1C[C@@H](O)[C@H](Cc1ccccc1)NC(=O)[C@H](CC(N)=O)NC(=O)c1ccc2ccccc2n1 [saquinavir] | ineffective | –
